Results taken from patent publication EP1118615A1, “NOVEL SALTS OF PYRIDOPYRAZINE COMPOUND AND CRYSTALS THEREOF” (FUJISAWA PHARMACEUTICAL CO., LTD., priority 1998, dated 2000).
Structures can show the parent of a compound that is named as a salt. Where two headings read alike, the source gives them in different places.

Experiments:
[1] = Hygroscopicity; assay type: physicochemical
Description: (§1) In the study on polymorphism of compound (I), six kinds of polymorphs (A01, A09, A16, A20, A30 and A43 crystals) were found. For each of those polymorphs, hygroscopicity, stability in solid state, solubility and changes in crystallinity on compounding with various solvents were studied. However, the A30 crystal was not studied since it contains ethanol.

[2] = Stability in solid state; assay type: physicochemical; design: Water content: unit not given here
Description: The crystallinity of hydrochloride was decreased when it was mixed with ethanol.
as §1
(2) Stability in solid state

[3] = Changes in crystallinity upon compounding with ethanol; assay type: physicochemical
Description: (2) Changes in crystallinity upon compounding
For compound (I) and hydrochloride (B), changes in crystallinity upon compounding with ethanol were studied.

[4] = methanesulfonate
[5] = physchem; details: thermodynamic from solid
[6] = 70°C, 75% RH, 9 days, methanesulfonate
[7] = Table 1, listed as Compound (I) (A01 crystal)
[8] = Table 4, room temperature, 30-min shaking
[9] = distilled water for injection, water
[10] = physiological saline solution, saline or isotonic

SMILES: CS(=O)(=O)O.O=C(Nc1cccc(-n2c(=O)c(Cc3cccnc3)nc3cccnc32)c1)c1cc(Cl)cc(Cl)c1 [A01 crystal, 4-(3-(3,5-dichlorobenzoylamino)phenyl)-2-(3-pyridyl)methyl-3-oxo-3,4-dihydropyr ido[2,3-b]pyrazine methanesulfonate]
- Hygroscopicity ([1]; listed as A01, methanesulfonate): less hygroscopic
- Crystal form ([2]; 70°C, 75% RH, 9 days): Unchanged
- % Residue [2, 6]: 99.9%
- Appearance [2, 6]: Yellowish white crystalline powder powder
- Water content [2, 6]: 4.76
- Crystal form ([2]; 70°C, 9 days): Unchanged
- Appearance ([2]; 70°C, 9 days, methanesulfonate): Yellowish white crystalline powder
- Water content ([2]; 70°C, 9 days, methanesulfonate): 4.23
- % Residue ([2]; Initial): 100.0%
- Appearance ([2]; Initial, methanesulfonate): Yellowish white crystalline powder
- Water content ([2]; Initial, methanesulfonate): 4.42
- Influence of compounding with ethanol on crystallinity ([3]; listed as Compound (I) (A01 crystal), methanesulfonate): No change (changed into in A16 crystal)
- Solubility, Distilled water for injection [4, 7]: improved
- Solubility, Physiological saline solution [4, 7]: improved
- Solubility, Distilled injection for injection [4, 8]: 637 µg/mL
- solubility [5, 9]: 637 µg/mL
- solubility [5, 10]: 43.9 µg/mL
- solubility at 30 min [5, 10]: 43.9 µg/mL

SMILES: CS(=O)(=O)O.O=C(Nc1cccc(-n2c(=O)c(Cc3cccnc3)nc3cccnc32)c1)c1cc(Cl)cc(Cl)c1 [A20 crystal, 4-(3-(3,5-dichlorobenzoylamino)phenyl)-2-(3-pyridyl)methyl-3-oxo-3,4-dihydropyr ido[2,3-b]pyrazine methanesulfonate]
- Hygroscopicity ([1]; listed as A20, methanesulfonate): less hygroscopic
- Crystal form ([2]; 70°C, 75% RH, 9 days): Unchanged
- % Residue [2, 6]: 101.0%
- Appearance [2, 6]: Pale yellowish white crystalline powder
- Water content [2, 6]: 1.22
- Crystal form ([2]; 70°C, 9 days): Unchanged
- % Residue ([2]; 70°C, 9 days, methanesulfonate): 99.6%
- Appearance ([2]; 70°C, 9 days, methanesulfonate): Pale yellowish white crystalline powder
- Water content ([2]; 70°C, 9 days, methanesulfonate): 0.30
- % Residue ([2]; Initial): 100.0%
- Appearance ([2]; Initial, methanesulfonate): Pale yellowish white white crystalline powder
- Water content ([2]; Initial, methanesulfonate): 0.41
- change in crystal form ([2]; heat and humidity, summary of Table 3): no change
- chemical stability against heat and humidity ([2]; summary of Table 3): chemically stable
- Solubility, Distilled injection for injection [4, 8]: 8.76 µg/mL
- Solubility, Physiological saline solution [4, 8]: 0.0645 mg/ml

SMILES: CS(=O)(=O)O.O=C(Nc1cccc(-n2c(=O)c(Cc3cccnc3)nc3cccnc32)c1)c1cc(Cl)cc(Cl)c1 [Example A09, 4-(3-(3,5-dichlorobenzoylamino)phenyl)-2-(3-pyridyl)methyl-3-oxo-3,4-dihydropyrido[2,3-b]pyrazine methanesulfonate]
- Hygroscopicity ([1]; methanesulfonate): highly hygroscopic

SMILES: CS(=O)(=O)O.O=C(Nc1cccc(-n2c(=O)c(Cc3cccnc3)nc3cccnc32)c1)c1cc(Cl)cc(Cl)c1 [compound (I), 4-[3-(3,5-dichlorobenzoylamino)phenyl]-2-(3-pyridylmethyl)-3-oxo-3,4-dihydropyr ido[2,3-b]pyrazine methanesulfonate]
- Influence of compounding with ethanol on crystallinity ([3]; methanesulfonate): no change in crystallinity

SMILES: O=C(Nc1cccc(-n2c(=O)c(Cc3cccnc3)nc3cccnc32)c1)c1cc(Cl)cc(Cl)c1 [free base (A), 4-[3-(3,5-dichlorobenzoylamino)phenyl]-2-(3-pyridylmethyl)-3-oxo-3,4-dihydropyr ido[2,3-b]pyrazine, reference compound]
- solubility [5, 9]: ≤ 1 µg/mL
- solubility [5, 10]: ≤ 1 µg/mL

SMILES: O=C(Nc1cccc(-n2c(=O)c(Cc3cccnc3)nc3cccnc32)c1)c1cc(Cl)cc(Cl)c1 [hydrochloride (B), reference compound]
- residual amount ([2]; ethanol-compounded solid, 70°C for 9 days): 91%
- Influence of compounding with ethanol on crystallinity ([3]; listed as Hydrochloride (B)): Crystallinity decreased
- Influence of compounding with ethanol on crystallinity ([3]; listed as hydrochloride): decreased

SMILES: O=C(Nc1cccc(-n2c(=O)c(Cc3cccnc3)nc3cccnc32)c1)c1cc(Cl)cc(Cl)c1.O=S(=O)(O)O [sulfate, 4-(3-(3,5-dichlorobenzoylamino)phenyl)-2-(3-pyridyl)methyl-3-oxo-3,4-dihydropyrido[2,3-b]pyrazine sulfate, reference compound]
- solubility [5, 9]: 29.5 µg/mL
- solubility [5, 10]: 38.9 µg/mL
